The values below come from US9758445B2, “Preparation of surfactants via cross-metathesis” (MATERIA, INC., priority 2013, dated 2017).

A short description of the first data set: Krafft Point from the abrupt increase in electrical conductivity as a function of temperature. Format: physicochemical.
Settings: not given
As for the experimental part: Krafft Point or Krafft Temperature is defined as the […]. Surfactants form micelles above their Krafft Point and the solubility in water increases abruptly. The Krafft point was determined by the abrupt increase in the electrical conductivity of as a function of temperature. The intersection of the two solubility lines is the Krafft Point.
For `CCCCCCCCCC(C)c1ccc(S(=O)(=O)O)cc1` (stereo not drawn) [2-PhC11 LAS, sodium 4-(undecan-2-yl)benzenesulfonate], the “Krafft Point” value was found to be 23.0 °C.

For `CCCCCCCCCCC(C)c1ccc(S(=O)(=O)O)cc1` (stereo not drawn) [2-PhC12 LAS, sodium 4-(dodecan-2-yl)benzenesulfonate], the “Krafft Point” value amounted to 22.5 °C. For `CCCCCCCCCCCCCCC(C)c1ccc(S(=O)(=O)O)cc1` (stereo not drawn) [2-PhC16 LAS, sodium 4-(hexadecan-2-yl)benzenesulfonate], the “Krafft Point” value is 45.0 °C.

The nature of another data set: Surfactant Foaming Test in tap water. Format: physicochemical. On the set-up: key: A: No Foam Generated; B: Small Volume of Foam Generated; C: Large Volume of Foam Generated. The settings on record: surfactant 0.023 wt %, tap water 7.0 mL, 23° C., shaken vigorously, foaming recorded after standing 3 minutes. As for the experimental part: To a 20 mL scintillation vial was added surfactant (0.023 wt %) and tap water (7.0 mL, 23° C.). The vial was sealed and the solution was shaken vigorously. The solution was allowed to stand for 3 minutes and foaming was recorded.
As to `CCCCCCCCC(C)c1ccc(COCCOCCOCCOC)cc1` (stereo not drawn) [R=CH2O(CH2CH2O)3CH3; n=7, 1-(4-(Decan-2-yl)phenyl)-2,5,8,11-tetraoxadodecane], the “Surfactant Foaming Test Results” value is on record as “A”. Still for that read-out and setting: then `CCCCCCCCCCC(C)c1ccc(COCCOCCOCCOC)cc1` (stereo not drawn) [R=CH2O(CH2CH2O)3CH3; n=9, 1-(4-(Dodecan-2-yl)phenyl)-2,5,8,11-tetraoxadodecane], with “B”; and `CCCCCCCCCCCCC(C)c1ccc(COCCOCCOCCOC)cc1` (stereo not drawn) [R=CH2O(CH2CH2O)3CH3; n=11, 1-(4-(Tetradecan-2-yl)phenyl)-2,5,8,11-tetraoxadodecane], with “B”; and `CCCCCCCCC(C)c1ccc(COCCOCCOCCO)cc1` (stereo not drawn) [R=CH2O(CH2CH2O)3H; n=7, 2-(2-(2-((4-(Decan-2-yl)benzyl)oxy)ethoxy)ethoxy)ethanol], with “C”. Same read-out and setting: the entry for `CCCCCCCCCC(C)c1ccc(COCCOCCOCCO)cc1` (stereo not drawn) [R=CH2O(CH2CH2O)3H; n=8, 2-(2-(2-((4-(undecan-2-yl)benzyl)oxy)ethoxy)ethoxy)ethanol] is “C”.

`CCCCCCCCCCC(C)c1ccc(COCCOCCOCCO)cc1` (stereo not drawn) [R=CH2O(CH2CH2O)3H; n=9, 2-(2-(2-((4-(dodecan-2-yl)benzyl)oxy)ethoxy)ethoxy)ethanol]: the “Surfactant Foaming Test Results” value is given as “C”.

As for `CCCCCCCCCCCC(C)c1ccc(COCCOCCOCCO)cc1` (stereo not drawn) [R=CH2O(CH2CH2O)3H; n=10, 2-(2-(2-((4-(tridecan-2-yl)benzyl)oxy)ethoxy)ethoxy)ethanol], the “Surfactant Foaming Test Results” value is given as “C”. On to `CCCCCCCCCCCCC(C)c1ccc(COCCOCCOCCO)cc1` (stereo not drawn) [R=CH2O(CH2CH2O)3H; n=11, 2-(2-(2-((4-(tetradecan-2-yl)benzyl)oxy)ethoxy)ethoxy)ethanol], for which the “Surfactant Foaming Test Results” value is “C”. On the same count and under the same terms, the entry for `CCCCCCCCC(C)c1ccc(COCCOCCOCCOCCOC)cc1` (stereo not drawn) [R=CH2O(CH2CH2O)4CH3; n=7, 1-(4-(Decan-2-yl)phenyl)-2,5,8,11,14-pentaoxapentadecane] is “C”; for `CCCCCCCCCC(C)c1ccc(COCCOCCOCCOCCOC)cc1` (stereo not drawn) [R=CH2O(CH2CH2O)4CH3; n=8, 1-(4-(Undecan-2-yl)phenyl)-2,5,8,11,14-pentaoxapentadecane] it is “B”.

On to `CCCCCCCCCCC(C)c1ccc(COCCOCCOCCOCCOC)cc1` (stereo not drawn) [R=CH2O(CH2CH2O)4CH3; n=9, 1-(4-(Dodecan-2-yl)phenyl)-2,5,8,11,14-pentaoxapentadecane], for which the “Surfactant Foaming Test Results” value is on record as “C”.

On to `CCCCCCCCCCCC(C)c1ccc(COCCOCCOCCOCCOC)cc1` (stereo not drawn) [R=CH2O(CH2CH2O)4CH3; n=10, 1-(4-(Tridecan-2-yl)phenyl)-2,5,8,11,14-pentaoxapentadecane], for which the “Surfactant Foaming Test Results” value is “B”. Regarding `CCCCCCCCCCCCC(C)c1ccc(COCCOCCOCCOCCOC)cc1` (stereo not drawn) [R=CH2O(CH2CH2O)4CH3; n=11, 1-(4-(Tetradecan-2-yl)phenyl)-2,5,8,11,14-pentaoxapentadecane], the “Surfactant Foaming Test Results” value is recorded as “B”. As to `CCCCCCCCCCCCCCC(C)c1ccc(COCCOCCOCCOCCOC)cc1` (stereo not drawn) [R=CH2O(CH2CH2O)4CH3; n=13, 1-(4-(Hexadecan-2-yl)phenyl)-2,5,8,11,14-pentaoxapentadecane], the “Surfactant Foaming Test Results” value is recorded as “B”.

As to `CCCCCCCCC(C)c1ccc(COCCOCCOCCOCCO)cc1` (stereo not drawn) [R=CH2O(CH2CH2O)4H; n=7, 1-(4-(Decan-2-yl)phenyl)-2,5,8,11-tetraoxatridecan-13-ol], the “Surfactant Foaming Test Results” value is reported as “C”. Consider `CCCCCCCCCC(C)c1ccc(COCCOCCOCCOCCO)cc1` (stereo not drawn) [R=CH2O(CH2CH2O)4H; n=8, 1-(4-(Undecan-2-yl)phenyl)-2,5,8,11-tetraoxatridecan-13-ol], for which the “Surfactant Foaming Test Results” value is given as “C”. Still for that read-out and setting: then `CCCCCCCCCCC(C)c1ccc(COCCOCCOCCOCCO)cc1` (stereo not drawn) [R=CH2O(CH2CH2O)4H; n=9, 1-(4-(Dodecan-2-yl)phenyl)-2,5,8,11-tetraoxatridecan-13-ol], with “C”. Same read-out and setting: the entry for `CCCCCCCCCCCC(C)c1ccc(COCCOCCOCCOCCO)cc1` (stereo not drawn) [R=CH2O(CH2CH2O)4H; n=10, 1-(4-(Tridecan-2-yl)phenyl)-2,5,8,11-tetraoxatridecan-13-ol] is “C”. Consider `CCCCCCCCCCCCC(C)c1ccc(COCCOCCOCCOCCO)cc1` (stereo not drawn) [R=CH2O(CH2CH2O)4H; n=11, 1-(4-(Tetradecan-2-yl)phenyl)-2,5,8,11-tetraoxatridecan-13-ol], for which the “Surfactant Foaming Test Results” value is given as “C”. On the same count and under the same terms, the entry for `CCCCCCCCCCCCCCC(C)c1ccc(COCCOCCOCCOCCO)cc1` (stereo not drawn) [R=CH2O(CH2CH2O)4H; n=13, 1-(4-(Hexadecan-2-yl)phenyl)-2,5,8,11-tetraoxatridecan-13-ol] is “C”. Same read-out and setting: the entry for `CCCCCCCCC(C)c1ccc(COCCOC)cc1` (stereo not drawn) [R=CH2OCH2CH2OCH3; n=7, 1-(Decan-2-yl)-4-((2-methoxyethoxy)methyl)benzene] is “B”; for `CCCCCCCCCCCC(C)c1ccc(COCCOC)cc1` (stereo not drawn) [R=CH2OCH2CH2OCH3; n=10, 1-((2-Methoxyethoxy)methyl)-4-(tridecan-2-yl)benzene] it is “C”. Still for that read-out and setting: the entry for `CCCCCCCCCCCCC(C)c1ccc(COCCOC)cc1` (stereo not drawn) [R=CH2OCH2CH2OCH3; n=11, 1-((2-Methoxyethoxy)methyl)-4-(tetradecan-2-yl)benzene] is “C”; for `CCCCCCCCCCCCCCC(C)c1ccc(COCCOC)cc1` (stereo not drawn) [R=CH2OCH2CH2OCH3; n=13, 1-(Hexadecan-2-yl)-4-((2-methoxyethoxy)methyl)benzene] it is “C”; for `CCCCCCCCC(C)c1ccc(COCCO)cc1` (stereo not drawn) [R=CH2OCH2CH2OH; n=7, 2-((4-(Decan-2-yl)benzyl)oxy)ethanol] it is “A”. Regarding `CCCCCCCCCC(C)c1ccc(COCCO)cc1` (stereo not drawn) [R=CH2OCH2CH2OH; n=8, 2-((4-(Undecan-2-yl)benzyl)oxy)ethanol], the “Surfactant Foaming Test Results” value was “A”. In the case of `CCCCCCCCCCC(C)c1ccc(COCCO)cc1` (stereo not drawn) [R=CH2OCH2CH2OH; n=9, 2-((4-(Dodecan-2-yl)benzyl)oxy)ethanol], the “Surfactant Foaming Test Results” value is “A”. On the same count and under the same terms, then `CCCCCCCCCCCC(C)c1ccc(COCCO)cc1` (stereo not drawn) [R=CH2OCH2CH2OH; n=10, 2-((4-(Tridecan-2-yl)benzyl)oxy)ethanol], with “A”; and `CCCCCCCCCCCCC(C)c1ccc(COCCO)cc1` (stereo not drawn) [R=CH2OCH2CH2OH; n=11, 2-((4-(Tetradecan-2-yl)benzyl)oxy)ethanol], with “A”; and `CCCCCCCCCCCCCCC(C)c1ccc(COCCO)cc1` (stereo not drawn) [R=CH2OCH2CH2OH; n=13, 2-((4-(Hexadecan-2-yl)benzyl)oxy)ethanol], with “A”. Same read-out and setting: then `CCCCCCCCC(C)c1ccc(CO)cc1` (stereo not drawn) [R=CH2OH; n=7, (4-(Decan-2-yl)phenyl)methanol], with “A”; and `CCCCCCCCCC(C)c1ccc(CO)cc1` (stereo not drawn) [R=CH2OH; n=8, (4-(Undecan-2-yl)phenyl)methanol], with “A”. Still for that read-out and setting: then `CCCCCCCCCCC(C)c1ccc(CO)cc1` (stereo not drawn) [R=CH2OH; n=9, (4-(Dodecan-2-yl)phenyl)methanol], with “A”. With `CCCCCCCCCCCC(C)c1ccc(CO)cc1` (stereo not drawn) [R=CH2OH; n=10, (4-(Tridecan-2-yl)phenyl)methanol], the “Surfactant Foaming Test Results” value is recorded as “A”. Same read-out and setting: the entry for `CCCCCCCCCCCCC(C)c1ccc(CO)cc1` (stereo not drawn) [R=CH2OH; n=11, (4-(Tetradecan-2-yl)phenyl)methanol] is “A”; for `CCCCCCCCCCCCCCC(C)c1ccc(CO)cc1` (stereo not drawn) [R=CH2OH; n=13, (4-(Hexadecan-2-yl)phenyl)methanol] it is “A”; for `CCCCCCCCC(C)c1ccccc1` (stereo not drawn) [R=H; n=7, 2-Phenyldecane] it is “A”.

Consider `CCCCCCCCCC(C)c1ccccc1` (stereo not drawn) [R=H; n=8, 2-Phenylundecane], for which the “Surfactant Foaming Test Results” value was “A”. Still for that read-out and setting: the entry for `CCCCCCCCCCC(C)c1ccccc1` (stereo not drawn) [R=H; n=9, 2-Phenyldodecane] is “A”. On the same count and under the same terms, then `CCCCCCCCCCCC(C)c1ccccc1` (stereo not drawn) [R=H; n=10, 2-phenyltridecane], with “A”; and `CCCCCCCCCCCCC(C)c1ccccc1` (stereo not drawn) [R=H; n=11, 2-phenyltetradecane], with “A”; and `CCCCCCCCCCCCCCC(C)c1ccccc1` (stereo not drawn) [R=H; n=13, 2-Phenylhexadecane], with “A”.

A further data set can be described thus: Surface tension above CMC. In kind it is physicochemical.
Settings: not given
`CCCCCCCCCC(C)c1ccc(S(=O)(=O)O)cc1` (stereo not drawn) [2-PhC11 LAS, sodium 4-(undecan-2-yl)benzenesulfonate]: the “Surface Tension” value is reported as 43 dynes/cm. Same read-out and setting: then `CCCCCCCCCCC(C)c1ccc(S(=O)(=O)O)cc1` (stereo not drawn) [2-PhC12 LAS, sodium 4-(dodecan-2-yl)benzenesulfonate], with 41 dynes/cm; and `CCCCCCCCCCCCCCC(C)c1ccc(S(=O)(=O)O)cc1` (stereo not drawn) [2-PhC16 LAS, sodium 4-(hexadecan-2-yl)benzenesulfonate], with 44 dynes/cm.

The nature of another data set: Critical Micelle Concentration (CMC) from the electrical conductivity-concentration curve at constant temperature. In kind it is physicochemical. The note with it: at 22.0° C. As for the experimental part:
The Critical Micelle Concentration (CMC) is defined as the concentration of surfactants above which micelles form and all additional surfactants added to the system go to micelles. The CMC is measured by the electrical conductivity-concentration curve at constant temperature.
Consider `CCCCCCCCCC(C)c1ccc(S(=O)(=O)O)cc1` (stereo not drawn) [2-PhC11 LAS, sodium 4-(undecan-2-yl)benzenesulfonate], for which the “CMC (mmol/L) at Temp (° C.)” value came to 1.9 at 22.0 °C mmol/L.

Still in this data set, the particulars now being: at 22.5° C.
Regarding `CCCCCCCCCCC(C)c1ccc(S(=O)(=O)O)cc1` (stereo not drawn) [2-PhC12 LAS, sodium 4-(dodecan-2-yl)benzenesulfonate], the “CMC (mmol/L) at Temp (° C.)” value worked out at 2.1 at 22.5 °C mmol/L.

Staying with this data set, now noted: at 44.0° C.
Take `CCCCCCCCCCCCCCC(C)c1ccc(S(=O)(=O)O)cc1` (stereo not drawn) [2-PhC16 LAS, sodium 4-(hexadecan-2-yl)benzenesulfonate]: the “CMC (mmol/L) at Temp (° C.)” value came to 1.5 at 44.0 °C mmol/L.
